12 molecules from ChEMBL document CHEMBL2331303, “N-(Phenoxyalkyl)amides as MT(1) and MT(2) ligands: antioxidant properties and inhibition of Ca(2+)/CaM-dependent kinase II” (Bioorg Med Chem, 2013) can be followed below.

Active and inactive are the calls of the source. The calls are words filed in the database; no cut-off is given here.

For experiment [1], the system named is Radical scavenging activity. Kind of experiment: Antioxidant activity assessed as DPPH radical scavenging activity at 0.1 mM. Type of experiment: functional.
Experiment [2] deals with Radical scavenging activity. Kind of experiment: Antioxidant activity assessed as DPPH radical scavenging activity at 1 mM. Type of experiment: functional.
A short description of experiment [3]: Inhibition of active recombinant full-length CaMK2 (unknown origin) using Autocamtide substrate and [gamma32P]ATP after 30 mins by scintillation counting method. The arrangement: species or system Homo sapiens.
The test system of experiment [4] is HepG2. Description: Antioxidant activity in human HepG2 cells assessed as reduction in H2O2-induced oxidation by DCFH-DA assay. It counts as functional, cell-based.
Experiment [5] relates to HepG2. Kind of experiment: Cytoprotective activity in human HepG2 cells assessed as reduction in H2O2-induced cell death at 10 to 100 ug/mL incubated for 2 hrs by MTT assay. It counts as functional, cell-based.
Experiment [6] has as its system Radical scavenging activity. Description: Antioxidant activity assessed as DPPH radical scavenging activity at 5.5 mM. Type of experiment: functional.
Experiment [7] relates to Radical scavenging activity. Kind of experiment: Antioxidant activity assessed as DPPH radical scavenging activity. It counts as functional. The note with it: dose or concentration not given here.
For experiment [8], the system named is HepG2. Description: Cytoprotective activity in human HepG2 cells assessed as reduction in H2O2-induced cell death at 100 ug/mL incubated for 2 hrs by MTT assay. Type of experiment: functional. The arrangement: scale not given: the % may be the effect or the level left.

For `CCCC(=O)NCC(C)Oc1cccc(OC)c1` (racemic), the figures for the inhibition in experiment [1], in experiment [2] and in experiment [6] were 3.22%, 4.05% and 11.7%, respectively. For the same molecule, the IC50 in experiment [3] was 122 µM; in experiment [4], 226 µM. In addition, the result in experiment [5] was Active.

As to `CC(=O)NC(C)COc1ccccc1` (racemic), the IC50 in experiment [4] is over 1000 µM.

Take `CC(=O)NCC(C)Oc1ccccc1` (racemic): in experiment [4], the IC50 was over 1000 µM.

As to `O=C(O)c1cc(O)c(O)c(O)c1`, the inhibition in experiment [1] was found to be 97.1%; in experiment [7], 6%.

Regarding `COc1cccc(O[C@@H](C)CNC(=O)C2CC2)c1`, the half-maximal inhibitory concentration (IC50) in experiment [3] was found to be 117 µM.

Turning to `CCCC(=O)NC[C@H](C)Oc1cccc(OC)c1`, the results for the inhibition in experiment [1], in experiment [2] and in experiment [6] were 2.8%, 1.3% and 15.1%, respectively. In addition, the half-inhibitory concentration (IC50) in experiment [3] is 77 µM; in experiment [4], over 1000 µM.

In the case of `COc1ccc2[nH]cc(CCNC(C)=O)c2c1` [MELATONIN], the results for the inhibition in experiment [1], in experiment [2] and in experiment [6] were 2.1%, 7.8% and 31.8%, respectively. Moreover, the figures for the IC50 in experiment [3] and in experiment [4] were 128 µM and 271 µM, respectively.

Consider `COc1cccc(O[C@H](C)CNC(=O)C2CC2)c1`, for which the IC50 in experiment [3] was 129 µM.

`COc1cccc(OC(C)CNC(=O)C2CC2)c1` (racemic): the results for the 50% inhibitory concentration (IC50) in experiment [3] and in experiment [4] were 107 µM and over 1000 µM, respectively.

Turning to `CCCC(=O)NC[C@@H](C)Oc1cccc(OC)c1`, the inhibition in experiment [1] was found to be 5.6%; in experiment [2] it was 5.1%; in experiment [6] it was 20.7%. For the same molecule, the IC50 in experiment [3] was 129 µM; in experiment [4], 183 µM. Further, the Activity in experiment [8] is 100%. Besides, the outcome in experiment [5] was Active.

In the case of `COc1cccc(OC(C)CNC(C)=O)c1` (racemic), in experiment [4], the IC50 is over 1000 µM.

Turning to `CC(=O)NCCOc1ccccc1`, the 50% inhibitory concentration (IC50) in experiment [4] is over 1000 µM.
